Laboratory results reported in patent publication US20240002435A1, “SYNTHETIC PEPTIDE AND APPLICATION THEREOF” (Wuhan Innerse Pharmaceutical Inc., priority 2021, published 2024).
“And” between values parts separate entries of the source, which are not always exact repeats. Equal entries are not always repeated. Where no end group is shown, it is not given here. [ ]: non-standard residue; d: D form. βAla = NCCC(=O)O

Experiments:
[1] = Dose-effect experiment, body weight of MCAO model animals (Example 10); settings: mean ± SD
Description: The establishment of rat model: the rats were placed in an anesthesia induction box filled with 3.0% isoflurane for anesthesia induction. Anesthesia-induced animals were transferred to the operating table, and anesthesia was maintained with 2.0%˜2.5% isoflurane at 200 mL/min using a small-animal gas anesthesia machine, and the eyelid reflex and pain response of the rats were observed. The surgery can be started only after the eyelid reflex response and the pain response on limbs and tail disappeared. • A. Isolating and exposing blood vessels: the skin of the surgical area was shaved, and the rat was placed under a surgical microscope. The skin of the rat was cut along the midline with ophthalmic scissors, with a cut of about 2 cm length. […]
Animals measured: all the surviving experimental animals planned to be measured;
Measurement time: the body weight was measured at least twice during the accommodation, and each batch of rats were weighed once on the day before the surgery and on the day of dissection to calculate the amount of drug administered and the anesthetic applied; the body weight was measured twice a week after the surgery.

[2] = tested on: patients with acute ischemic stroke (AIS) undergoing endovascular thrombectomy; settings: 2.6 mg/kg intravenous injection; cited from earlier work
[3] = tested on: suture-embolized MCAO model, rat cerebral ischemic stroke; test: Dose-effect experiment, Bederson score (Example 10); type: in vivo, Sprague-Dawley (SD) rats; settings: 3 mg/kg group; 1 hour after ischemia, i.e. before dosing (model check); mean ± SD
Description: Measurement time: 1 hour after ischemia on the day of modeling;
Animals measured: all the animals survived in surgery;
Measurement method: the Bederson scoring standard was used to score animals.

[4] = tested on: suture-embolized MCAO model, rat cerebral ischemic stroke; test: Dose-effect experiment, suture-embolized MCAO ischemia-reperfusion, TTC infarct size and inhibition rate (Example 10); type: in vivo, Sprague-Dawley (SD) rats
Description: The establishment of rat model: the rats were placed in an anesthesia induction box filled with 3.0% isoflurane for anesthesia induction. Anesthesia-induced animals were transferred to the operating table, and anesthesia was maintained with 2.0%˜2.5% isoflurane at 200 mL/min using a small-animal gas anesthesia machine, and the eyelid reflex and pain response of the rats were observed. The surgery can be started only after the eyelid reflex response and the pain response on limbs and tail disappeared. • A. Isolating and exposing blood vessels: the skin of the surgical area was shaved, and the rat was placed under a surgical microscope. The skin of the rat was cut along the midline with ophthalmic scissors, with a cut of about 2 cm length. Through the right neck of the rat, the muscle tissue of the right neck was bluntly isolated and opened with a microforcep to expose the right common carotid artery (CCA), and then isolated upward along the common carotid artery to further expose the external carotid artery (ECA) and internal carotid artery (ICA); • B. The ECA was ligated and the ICA was temporarily clamped; the proximal end and distal end of CCA were threaded separately, the distal end was tied tightly and the proximal end was tied with a loose knot, and a small incision was made between the two threads; • C. Inserting the suture emboli: A No. 4-0 suture emboli was inserted through the incision of CCA, pushed slowly and gently into the internal carotid artery, and stopped at the artery clamp of ICA, the pre-set thread was tied tightly (to avoid severe bleeding when pushing the suture emboli), then the artery clamp that blocked the blood flow of ICA was removed, and the suture emboli was immediately pushed into ICA until entering into the cranium. At the moment, one should be careful not to insert the suture emboli into the pterygopalatine artery, which is another branch of the internal carotid artery (the pterygopalatine artery is one of the extra-cranial branches of ICA; when the suture emboli entered the pterygopalatine artery to a depth of about 10 mm, it cannot be inserted further, at the moment one should slightly draw back the suture emboli, adjust the direction, and insert again); • D. Fixing the suture emboli and suturing the incision: if one felt slight resistance when the suture emboli was inserted about 18 mm depth from the bifurcation of the common carotid artery, it means that the tip of the suture emboli has entered into the cerebral anterior artery (ACA), and the side wall of the suture emboli has blocked the opening of the middle cerebral artery; at the moment, the insertion was terminated and the time was recorded. […]

[5] = tested on: rat model of cerebral ischemia (middle cerebral artery occlusion, MCAO); test: MCAO rat cerebral ischemia model, TTC staining, cerebral infarct volume (Example 9); type: in vivo, SD rats; settings: for Cerebral infarction volume (TTC quantification), mean value / Cerebral infarction volume (TTC quantification): 3 mg/kg tail vein 1-2 h after suturation, read 22-24 h; for Cerebral infarction volume (TTC quantification), mean value: mean of 6 rats
Description: (§1) In order to determine the application of the synthetic peptides provided by the present invention in neurological diseases, the present invention uses SD rats as experimental objects, and performs middle cerebral artery occlusion method (MCAO) to prepare rat model of cerebral ischemia. These rats were injected drugs intravenously 1-2 hours after ischemia, and a behavioral observation and scoring was conducted for each animal after 22-24 hours. After the behavioral observation, the experimental rats were euthanized and their brains were removed, cut to sections and stained with TTC for quantitative analysis, and the cerebral infarct volume % was calculated.
(§2) The experimental SD rat was weighed and anesthetized with chloral hydrate. After anesthesia, the limbs of the rat were fixed, and the rat was placed in a supine position, connected to the small-animal monitor, and monitored for important physiological parameters such as body temperature, blood pressure and heart rate, etc. The rat's neck was shaved and disinfected with 75% alcohol cotton ball. A middle incision of about 2 cm length was then made on the neck of the experimental rat, and the submandibular gland of the rat was bluntly separated while avoiding damage to the gland. Then, the left common carotid artery (CCA) of the experimental rat was bluntly separated, and the internal carotid artery (ICA) and external carotid artery (ECA) were carefully separated upward along the CCA. Any damage to vagus nerves was avoided during the separation. The CCA and ICA were clamped respectively with two artery clamps, and the distal end of the ECA was cut off and a silicone suture emboli was inserted into the ECA “port” to the ICA artery clamp, then the artery clamp was quickly loosened and the tip of the suture emboli was put in through the artery clamp quickly before clamping the ICA again. This step was repeated and the suture emboli was put in further until the black mark of the suture emboli reached the bifurcation of the ECA and ICA, and the tip of the suture emboli blocked the middle cerebral artery and then the ECA “port” and the suture emboli was tied tightly using a thread in order to prevent the “escape” of suture emboli or bleeding after the rat waked up. The artery clamps on the CCA and ICA were then loosed and removed to restore the tissue to its original position, and an appropriate amount of penicillin was applied to prevent wound infection. A medical suture needle with thread was used to suture, and the wound was disinfected using povidone-iodine again after the suturation. The experimental rats were monitored with the small-animal monitor to evaluate if their physiological parameters were normal, and the rats were placed on a small-animal electric blanket to keep their body temperature until they waked up, and placed in animal cages.
(§3) The drug to be tested was prepared as 3 mg/mL solution. The drug was dosed via tail vein 1-2 h after the suturation.
(§4) During the drug administration, the rat was fastened with a fastening device, and the drug to be tested was injected into the tail vein of the rat at 3 mg/kg using 1 mL syringe, the drug was injected slowly to reduce the cardiopulmonary load of the experimental rat.
(§5) The animals were divided into different test groups, with 6 rats for each group.
(§6) Drug groups S1 (NA1), S8 (beta-Ala-His-Gly) and S9 (Gly-beta-Ala-His): administered via tail vein after the suturation;
After behavioral observations, experimental rats were euthanized and their brains were removed. The brain tissue was transversely cut into 6 slices with a 2 mm thickness, then transferred to TTC staining solution, incubated in a 37° C. incubator without light for 10 min, and taken pictures. The TTC-stained brain tissue and the remaining non-stained brain tissue were stored at −20° C.
Quantitative analysis of photos after TTC staining was performed using Image J software. […]

[6] = tested on: experimental cerebral ischemia-reperfusion in animals; settings: cynomolgus monkeys, preclinical ischemic stroke model; cited from earlier work
[7] = tested on: rat model of cerebral ischemia (middle cerebral artery occlusion, MCAO); test: MCAO rat cerebral ischemia model, blinded behavioral scoring 0-5 points (Example 9); type: in vivo, SD rats; settings: 3 mg/kg tail vein; for Behavioral score, mean value / Behavioral score: 22-24 h after suturation, scale 0-5 points; for Behavioral score, mean value: mean of 6 rats
Description: as §1, §2, §3, §4, §5, §6
The behavioral observation and scoring were performed on each animal 22-24 h after the suturation.

[8] = tested on: suture-embolized MCAO model, rat cerebral ischemic stroke; test: Dose-effect experiment, rat neurological function score NSS (Example 10); type: in vivo, Sprague-Dawley (SD) rats; settings: mean ± SD
Description: Measurement time: 24 hours before and after modeling;
Measurement method: a motor function test, sensory test, balance test, and reflex and abnormal behavior test were performed on animals, according to the rat neurological function score scale (NS S) for details.

[9] = 3 mg/kg group, D 0 = 1 day before surgery (baseline)
[10] = 3 mg/kg i.v., D 2 = 1 day after surgery

| Substance | Cerebral infarction volume (TTC quantification), mean value [5] | Cerebral infarction volume (TTC quantification) ([5]; rat No. 1) | Cerebral infarction volume (TTC quantification) ([5]; rat No. 2) | Cerebral infarction volume (TTC quantification) ([5]; rat No. 3) | Cerebral infarction volume (TTC quantification) ([5]; rat No. 4) | Cerebral infarction volume (TTC quantification) ([5]; rat No. 5) | Cerebral infarction volume (TTC quantification) ([5]; rat No. 6) | Behavioral score, mean value [7] | Behavioral score ([7]; rat No. 1) | Behavioral score ([7]; rat No. 2) | Behavioral score ([7]; rat No. 3) | Behavioral score ([7]; rat No. 4) | Behavioral score ([7]; rat No. 5) | Behavioral score ([7]; rat No. 6) | also measured |
| --- | --- | --- | --- | --- | --- | --- | --- | --- | --- | --- | --- | --- | --- | --- | --- |
| YGRKKRRQRRRKLSSIESDV [S1, Nerinetide] | 0.157 | 0.187 | 0.218 | 0.153 | 0.145 | 0.107 | 0.134 | 2.0 | 2 | 2 | 2 | 2 | 1 | 3 | Weight D 0 [1, 9]: 251.91 ± 8.69 g; Weight D 2 [1, 10]: 203.7 ± 10.94 g; Effect on patient's prognosis [2]: improved patient's prognosis; Bederson [3]: 3 ± 0; Infarct weight ([4]; 3 mg/kg i.v. once within 10 min after reperfusion, 24 h after treatment, mean ± SD): 0.24 ± 0.02 g; Infarct size ([4]; 3 mg/kg i.v. once within 10 min after reperfusion, TTC 24 h after treatment, infarct weight / whole brain weight, mean ± SD): 16.74±3.14%; Inhibition rate of cerebral infarction ([4]; 3 mg/kg i.v., calculated from infarct size vs model control group): 33%; Effect on infarct size of experimental cerebral ischemia-reperfusion [6]: reduce the infarct size; Behavioral score, mean value ([7]; listed as NA1): 2.0±0.6; NSS score D 0 [8, 9]: 0 ± 0; NSS score D 2 [8, 10]: 8.00±0.76 |
| Gly-[βAla]-His [S9] | 0.197±0.059 and 0.197 | 0.239 | 0.206 | 0.208 | 0.263 | 0.171 | 0.095 | 2.0 | 3 | 3 | 2 | 2 | 1 | 1 | Infarct volume, statistical comparison with S1 (NA1) ([5]; 3 mg/kg tail vein): not statistically different from S1; Behavioral score, statistical comparison with S1 (NA1) [7]: not statistically different from S1; Behavioral score, mean value ([7]; listed as Gly-beta-Ala-His): 2.0±0.9 |
